{"source": "patent US20240165104A1", "about": "“TREATMENT OF DEPRESSION” (priority 2021, published 2024)", "key": {"[1]": {"tested_on": "treatment-adherent patients with treatment-resistant depression", "assay": "Analysis of treatment-adherent patients of the Phase 3 trial (Example 2)", "details": "both, human, in vivo, 6 weeks", "procedure": "It was discovered in this study that measurement of plasma drug concentrations is a direct method of assessing treatment adherence.\n(§1) In the patients of Example 1, plasma samples were collected after up to 6 weeks of treatment in the clinical trial (end of treatment visit) and analyzed.\n(§2) The selected drug concentration cutoffs approximate the lowest observed concentrations 24 hours after the last dose of the study drug under 100% adherent conditions. The 15 ng/mL threshold at 24 hours after the last dose corresponds to a plasma concentration of about 19 ng/mL at about 12 hours after a dose that is administered after steady state has been achieved (e.g., day 42).\nOther efficacy assessments included Quick Inventory Depressive Symptoms-Self Report (QIDS-SR-16), Hamilton Anxiety Rating Scale, and Cognition and Physical Functioning Questionnaire (CPFQ).\nDemographics and baseline characteristics were similar across both treatment groups."}, "[2]": {"assay": "Plasma drug concentration cutoffs for treatment adherence", "details": "human, in vivo", "procedure": "as §1, §2"}, "[3]": {"assay": "Solubility of the drug powder in water"}, "Plasma protein binding": {"assay": "Plasma protein binding", "type": "in vitro ADME", "details": "plasma"}, "[4]": {"assay": "Pharmacokinetics after administration of the subject combination", "details": "for accumulation ratio at steady state based on AUC0-12 / accumulation ratio at steady state based on Cmax: given as the subject combination; for AUC0-12 of metabolite relative to that of bupropion / Cmax of metabolite relative to peak level of bupropion: after administration of the subject combination; for apparent elimination half-life (metabolites): in vivo"}, "[5]": {"tested_on": "patients with treatment resistant depression (TRD)", "assay": "Phase 3 randomized double-blind active controlled trial of DM/BU in treatment resistant depression (Example 1)", "type": "in vivo, human", "description": "Inclusion criteria for the open-label period included males or females 18-65 years of age, a history of inadequate response to 1 or 2 prior antidepressant treatments, established by the Antidepressant Treatment Response Questionnaire (ATRQ), and a Hamilton Depression Rating Scale (HAMD-17) total score of ≥18. Inclusion criteria for the double-blind period included inadequate response to 2 or 3 prior antidepressant treatments, including open-label period failure. Exclusion criteria included a history of electroconvulsive therapy, vagus nerve stimulation, transcranial magnetic stimulation or any experimental central nervous system treatment during the current episode or in the past 6 months, schizophrenia, bipolar disorder, obsessive compulsive disorder, psychiatric symptoms secondary to any other general medical condition.\nThe change in depressive symptoms over time was measured using the Montgomery-Åsberg Depression Rating Scale (MADRS) and the Quick Inventory of Depressive Symptomatology-Self-Rated (QIDS-SR-16). The primary endpoint was the change from baseline in the MADRS after 6 weeks of treatment. The key secondary endpoints were the change from baseline in the MADRS after 1 week of treatment, after 2 weeks of treatment, the average change over entire 6-week double-blind treatment period, and the Sheehan Disability Scale (SDS). Other pre-specified secondary efficacy variables included the Cognitive subscale of the Massachusetts General Hospital Cognitive and Physical Functioning Questionnaire (CPFQ), and the Hamilton Anxiety Scale (HAM-A)."}, "plasma protein": {"tested_on": "plasma protein", "assay": "Plasma protein binding", "type": "in vitro ADME", "details": "metabolites of bupropion"}, "[6]": {"details": "subject combination administered with food"}}, "note": "Counter-ions that a name gives are not always drawn. Like-named read-outs stand apart in the source and are kept apart here.", "data": [{"smiles": "CC(NC(C)(C)C)C(=O)c1cccc(Cl)c1.Cl", "note": "(racemic) [bupropion, (±)-1-(3-chlorophenyl)-2-[(1,1-dimethylethyl)amino]-1-propanone hydrochloride]", "values": [{"measurement": "Blood pressure increased", "setting": "[1]", "value": "0 (0.0%)"}, {"measurement": "Dizziness", "setting": "[1]", "value": "0 (0.0%)"}, {"measurement": "Dry mouth", "setting": "[1]", "value": "3 (2.3%)"}, {"measurement": "Headache", "setting": "[1]", "value": "6 (4.5%)"}, {"measurement": "Nasopharyngitis", "setting": "[1]", "value": "0 (0.0%)"}, {"measurement": "Nausea", "setting": "[1]", "value": "2 (1.5%)"}, {"measurement": "Somnolence", "setting": "[1]", "value": "2 (1.5%)"}, {"measurement": "rate of discontinuation due to adverse events", "setting": "[1]", "value": 0.8, "unit": "%"}, {"measurement": "concentration at 24 h", "setting": "[2]", "value": "~10", "unit": "ng/mL"}, {"measurement": "solubility in water", "setting": "[3]", "value": "highly soluble in water"}, {"measurement": "fraction unbound", "setting": "Plasma protein binding", "value": 0.16}, {"measurement": "accumulation ratio at steady state based on AUC0-12", "setting": "[4]", "value": 1.5}, {"measurement": "accumulation ratio at steady state based on Cmax", "setting": "[4]", "value": 1.1}, {"measurement": "Tmax", "setting": "[4]; human, plasma, oral", "value": "~2", "unit": "h"}, {"measurement": "increase of AUC0-12 with food", "setting": "[4]; [6]", "value": 6, "unit": "%"}, {"measurement": "increase of Cmax with food", "setting": "[4]; [6]", "value": 3, "unit": "%"}, {"measurement": "rate of remission from depression (QIDS-SR-16≤5) at Week 6", "setting": "[5]; % of patients, p=0.012", "value": 8.2, "unit": "%"}, {"measurement": "rate of discontinuation due to adverse events", "setting": "[5]; both, human, in vivo, 6 weeks", "value": 1.9, "unit": "%"}, {"measurement": "MADRS mean reduction averaged over the entire 6-week treatment period", "setting": "[5]; key secondary endpoint, DM/BU n=154, bupropion n=155, p=0.031", "value": 6.7}, {"measurement": "MADRS mean reduction at Week 1", "setting": "[5]; key secondary endpoint, p=0.02", "value": 3.6}, {"measurement": "MADRS mean reduction at Week 2", "setting": "[5]; key secondary endpoint, p=0.035", "value": 6.1}, {"measurement": "QIDS-SR-16 mean reduction averaged over the entire 6-week treatment period", "setting": "[5]; p=0.013", "value": 2.3}, {"measurement": "MADRS mean reduction at Week 6", "setting": "[5]; primary endpoint, p=0.117, did not reach statistical significance", "value": 9.4}]}, {"smiles": "COc1ccc2c(c1)[C@]13CCCC[C@@H]1[C@H](C2)N(C)CC3", "note": "[dextromethorphan, morphinan, 3-methoxy-17-methyl-, (9α, 13α, 14α), hydrobromide monohydrate]", "values": [{"measurement": "concentration at 12 h", "setting": "[2]; dose administered after steady state (e.g., day 42), read-out: corresponding plasma concentration at about 12 hours after a dose", "value": "~19", "unit": "ng/mL"}, {"measurement": "concentration at 24 h", "setting": "[2]; under 100% adherent conditions, read-out: plasma concentration cutoff approximating the lowest observed concentration 24 hours after the last dose", "value": "~15", "unit": "ng/mL"}, {"measurement": "solubility in water", "setting": "[3]", "value": "sparingly soluble in water"}, {"measurement": "increase of mean elimination half-life as compared to dextromethorphan given without bupropion", "setting": "[4]; following 8 days of the subject combination, extensive metabolizers", "value": "approximately 3 fold"}, {"measurement": "accumulation ratio at steady state based on AUC0-12", "setting": "[4]", "value": "about 32"}, {"measurement": "accumulation ratio at steady state based on Cmax", "setting": "[4]", "value": "about 20"}, {"measurement": "change of Cmax with food", "setting": "[4]; [6]", "value": "unchanged"}, {"measurement": "decrease of AUC0-12 with food", "setting": "[4]; [6]", "value": 14, "unit": "%"}]}, {"smiles": "CC(NC(C)(C)C)C(O)c1cccc(Cl)c1", "note": "(centres unmarked) [erythrohydroxybupropion]", "values": [{"measurement": "AUC0-12 of metabolite relative to that of bupropion", "setting": "[4]", "value": "about 1.2 times"}, {"measurement": "Cmax of metabolite relative to peak level of bupropion", "setting": "[4]", "value": "approximately equal to"}, {"measurement": "apparent elimination half-life (metabolites)", "setting": "[4]; human", "value": "~44", "unit": "h"}]}, {"smiles": "C[C@H]1NC(C)(C)CO[C@]1(O)c1cccc(Cl)c1", "note": "[hydroxybupropion]", "values": [{"measurement": "AUC0-12 of metabolite relative to that of bupropion", "setting": "[4]", "value": "about 19 times"}, {"measurement": "Cmax of metabolite relative to peak level of bupropion", "setting": "[4]", "value": "approximately 14 times"}, {"measurement": "apparent elimination half-life (metabolites)", "setting": "[4]; human", "value": "approximately 35 hours"}]}, {"smiles": "C[C@H](NC(C)(C)C)[C@@H](O)c1cccc(Cl)c1", "note": "[threohydroxybupropion]", "values": [{"measurement": "extent of protein binding compared with bupropion", "setting": "plasma protein", "value": "about half that seen with bupropion"}, {"measurement": "AUC0-12 of metabolite relative to that of bupropion", "setting": "[4]", "value": "about 7 times"}, {"measurement": "Cmax of metabolite relative to peak level of bupropion", "setting": "[4]", "value": "about 5 times"}, {"measurement": "apparent elimination half-life (metabolites)", "setting": "[4]; human", "value": "~33", "unit": "h"}]}]}
